Test results published in US7728012B2, “Carboxamide compounds and their use as calpain inhibitors” (Abbott GmbH & Co. KG, priority 2006, dated 2010).
pKi: −log10 of the molar value. Counter-ions that a name gives are not always drawn.

Columns and labels:
[1] = target: T1, calpain-I isolated from human erythrocytes (Homo sapiens, UniProt P07384); assay: Calpain I kinetic fluorescence enzyme inhibition assay; assay type: biochemical; conditions: apparent Ki from IC50 by Cheng-Prussoff; average of 2 to 4 dose-effect plots
T1 construct: calpain-I—isolated from human erythrocytes; purchased Calbiochem 208713; host or cells: human erythrocytes (tissue isolate)
T1 sequence (P07384 1-714): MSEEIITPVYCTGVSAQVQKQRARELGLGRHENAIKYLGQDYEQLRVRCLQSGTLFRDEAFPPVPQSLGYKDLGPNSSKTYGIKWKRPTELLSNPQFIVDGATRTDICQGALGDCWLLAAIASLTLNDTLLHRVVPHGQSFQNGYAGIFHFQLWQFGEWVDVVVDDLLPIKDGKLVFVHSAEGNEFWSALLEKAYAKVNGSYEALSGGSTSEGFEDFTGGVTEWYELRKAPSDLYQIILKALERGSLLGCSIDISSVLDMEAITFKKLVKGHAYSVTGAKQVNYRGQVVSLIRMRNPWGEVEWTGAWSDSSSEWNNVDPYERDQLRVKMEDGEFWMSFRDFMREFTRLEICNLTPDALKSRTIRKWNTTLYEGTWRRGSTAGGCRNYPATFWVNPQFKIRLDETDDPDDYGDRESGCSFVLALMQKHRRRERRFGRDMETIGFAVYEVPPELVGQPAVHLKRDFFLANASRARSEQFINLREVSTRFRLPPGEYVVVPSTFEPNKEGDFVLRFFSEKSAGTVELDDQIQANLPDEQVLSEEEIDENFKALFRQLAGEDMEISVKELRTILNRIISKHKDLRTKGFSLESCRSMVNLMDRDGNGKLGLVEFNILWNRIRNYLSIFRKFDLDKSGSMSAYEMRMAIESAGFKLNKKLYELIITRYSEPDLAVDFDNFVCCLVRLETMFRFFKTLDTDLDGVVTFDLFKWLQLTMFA
T1 sequence (P04632 1-268 partner): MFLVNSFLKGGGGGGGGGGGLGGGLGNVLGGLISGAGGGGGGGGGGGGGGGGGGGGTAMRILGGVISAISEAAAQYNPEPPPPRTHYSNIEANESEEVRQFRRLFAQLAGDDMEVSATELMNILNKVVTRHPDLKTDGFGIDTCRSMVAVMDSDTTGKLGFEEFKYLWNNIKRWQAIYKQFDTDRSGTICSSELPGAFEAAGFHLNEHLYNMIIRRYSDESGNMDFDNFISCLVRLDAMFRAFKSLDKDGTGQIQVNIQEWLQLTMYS
Description: (§1) The following solutions and buffers were employed: • HBS (for 40 ml): 800 μl M HEPES; 2.16 ml 100 mM KCl; 4.8 ml 1M NaCl; 3.59 ml 5% glucose; 60 μl μM MgSO4; 400 μl 100 mM Na pyruvate, 28.19 ml water; pH 7.2-7.5. • lysis buffer (for 20 ml): 400 μl M Tris pH 8.2; 2.74 ml 1M NaCl; 520 μl 0.5M EDTA; 2 ml 10% triton X-100; 0.8 ml (=1:25) CompletePlus (1 tablet/2 ml H2O); 200 μl 100 mM Pefabloc; 13.34 ml water, pH 8.2. • TBST (10×) (for 1 l): 100 mM Tris (12.1 g); 1.5M NaCl (87 g); 1% Tween 20 (10 g), adjusted to pH 8. I Enzyme Inhibition In Vitro: • Testing for blockade of the corresponding enzymic activities was carried out by means of kinetic fluorescence assays (excitation 390 nm, emission 460 nm). • Apparent Ki values were calculated from the experimentally determined IC50 values by the Cheng-Prussoff relation assuming a reversible competitive enzyme inhibition. The Km values of the substrates used under the assay conditions indicated above were: 90 μM (Z-Phe-Arg-AMC, cathepsin B), 10 μM (Z-Gly-Pro-Arg-AMC, cathepsin K), 2 μM (Z-Phe-Arg-AMC, cathepsin L), and 30 μM (Z-Val-Val-Arg-AMC, cathepsin S). • The indicated Ki values are averages of the inhibition constants calculated on the basis of 2 to 4 independent dose-effect plots.
(§2) The following assays were used: • 1. Calpain I: • 20 nM calpain-I—isolated from human erythrocytes (Calbiochem #208713), 100 μM Suc-Leu-Tyr-AMC (Bachem #1-1355) as substrate in buffer with 62 mM imidazole, 0.3 mM CaCl2, 0.10% CHAPS, 0.05% BSA, 1 mM DTT at pH 7.3 and room temperature. • 2. Cathepsin B: • 0.25 nM cathepsin B—isolated from human liver (Calbiochem #219362), 100 μM Z-Phe-Arg-AMC (Bachem #I-1160) as substrate 50 mM MES, 2 mM EDTA, 0.05% Brij 35, 2.5 mM L-cysteine, pH 6.0, room temperature. • 3. Cathepsin K: • 3 nM cathepsin K—activated from recombinant human procathepsin K from E. coli (Calbiochem #342001), 10 μM Z-Gly-Pro-Arg-AMC (Biomol #P-142) as substrate in 50 mM MES, 2 mM EDTA, 0.05% Brij 35, 2.5 mM L-cysteine, pH 6.0, room temperature. • 4. Cathepsin L: • 1 nM cathepsin L—isolated from human liver (Calbiochem #219402), 2 μM Z-Phe-Arg-AMC (Bachem #1-1160) as substrate in 50 mM MES, 2 mM EDTA, 0.05% Brij 35, 2.5 mM L-cysteine, pH 6.0, room temperature. • 5. Cathepsin S: • 0.5 nM recombinant human cathepsin S from E. coli (Calbiochem #219343), 20 μM Z-Val-Val-Arg-AMC (Bachem #1-1540) as substrate in 50 mM MES, 2 mM EDTA, 0.05% Brij 35, 2.5 mM L-cysteine, pH 6.0, room temperature. • The results of the in vitro determination are indicated in Table 1. The following abbreviations are used in Table 1: • The “Calpain activity” column, ++ stands for a calpain Ki (Ki(calpain)) of ≦40 nM and + means: 40 nM<Ki(Calpain)≦100 nM. • The “Sel. cat. B” column indicates the Ki(cathepsin B)/Ki(calpain) ratio. In this connection, ++ means a Ki(cathepsin B)/Ki(calpain) ratio of ≧30 and + means 10≦Ki(cathepsin B)/Ki(calpain)<30. • The “Sel. cat. K” column indicates the Ki(cathepsin K)/Ki(calpain) ratio. In this connection, ++ means a Ki(cathepsin K)/Ki(calpain) ratio of ≧30 and + means 10≦Ki(cathepsin K)/Ki(calpain)<30. • The “Sel. cat. L” column indicates the Ki(cathepsin L)/Ki(calpain) ratio. In this connection, ++ means a Ki(cathepsin L)/Ki(calpain) ratio of ≧50 and + means 30≦Ki(cathepsin L)/Ki(calpain)<50. • The “Sel. cat. S” column indicates the Ki(cathepsin S)/Ki(calpain) ratio. In this connection, ++ means a Ki(cathepsin S)/Ki(calpain) ratio of ≧100 and + means 50≦Ki(cathepsin S)/Ki(calpain)<100.

[2] = target: T2, recombinant human cathepsin S (Homo sapiens, UniProt P25774); assay: Cathepsin S kinetic fluorescence enzyme inhibition assay; assay type: biochemical; conditions: selectivity ratio versus calpain I
T2 construct: purchased Calbiochem 219343; host or cells: E. coli
Description: as §1, §2

T2 sequence (P25774 115-331): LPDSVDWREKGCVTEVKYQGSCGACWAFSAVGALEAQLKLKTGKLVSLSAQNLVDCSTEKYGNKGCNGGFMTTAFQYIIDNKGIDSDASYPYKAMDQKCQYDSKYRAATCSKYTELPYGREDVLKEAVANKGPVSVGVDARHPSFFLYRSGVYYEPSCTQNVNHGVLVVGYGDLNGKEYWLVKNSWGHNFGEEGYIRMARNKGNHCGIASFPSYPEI

Structure (SMILES) | pKi [1] | Sel cat. S (Ki(cathepsin S)/Ki(calpain) ratio) [2]
NC(=O)C(=O)C(Cc1ccccc1)NC(=O)c1cccnc1-n1ccc(-c2ccc(CN3CCOCC3)cc2)n1 (centres unmarked) [Example 46, N-(3-Amino-1-benzyl-2,3-dioxopropyl)-2-{3-[4-(morpholin-4-ylmethyl)phenyl]-1H-pyrazol-1-yl}nicotinamide] | 7.00 to 7.40 | ++ (Ki(cathepsin S)/Ki(calpain) ratio of ≧100)
CCCCC(NC(=O)c1cccnc1-n1cnc(-c2ccc(OC)cc2)c1)C(=O)C(N)=O (centres unmarked) [Example 12, N-{1-[Amino(oxo)acetyl]pentyl}-2-[4-(4-methoxyphenyl)-1H-imidazol-1-yl]nicotinamide] | ≥ 7.40 | –
CCCCC(NC(=O)c1cccnc1-n1cnc(-c2cccc(Cl)c2)c1)C(=O)C(N)=O (centres unmarked) [Example 21, N-{1-[Amino(oxo)acetyl]pentyl}-2-[4-(3-chlorophenyl)-1H-imidazol-1-yl]nicotinamide] | ≥ 7.40 | –
NC(=O)C(=O)C(Cc1ccccc1)NC(=O)c1cccnc1-n1cc(CN2CCCC2)c(-c2cccc(C(F)(F)F)c2)n1 (centres unmarked) [Example 178, N-[3-Amino-2,3-dioxo-1-(phenylmethyl)propyl]-2-{4-(pyrrolidin-1-ylmethyl)-3-[3-(trifluoromethyl)phenyl]-1H-pyrazol-1-yl}pyridine-3-carboxamide] | 7.00 to 7.40 | ++ (Ki(cathepsin S)/Ki(calpain) ratio of ≧100)
CCCCC(NC(=O)c1cccnc1-n1cnc(-c2ccccc2Cl)c1)C(=O)C(N)=O (centres unmarked) [Example 20, N-{1-[Amino(oxo)acetyl]pentyl}-2-[4-(2-chlorophenyl)-1H-imidazol-1-yl]nicotinamide hydrochloride] | ≥ 7.40 | –
CCCCC(NC(=O)c1cccnc1-n1cnc(-c2ccc(Cl)cc2)c1)C(=O)C(N)=O (centres unmarked) [Example 10, N-{1-[Amino(oxo)acetyl]pentyl}-2-[4-(4-chlorophenyl)-1H-imidazol-1-yl]nicotinamide] | ≥ 7.40 | –
NC(=O)C(=O)C(Cc1ccccc1)NC(=O)c1cccnc1-n1ccc(-c2ccncc2)n1 (centres unmarked) [Example 65, N-(3-Amino-1-benzyl-2,3-dioxopropyl)-2-(3-pyridin-4-yl-1H-pyrazol-1-yl)nicotinamide] | – | ++ (Ki(cathepsin S)/Ki(calpain) ratio of ≧100)
COc1ccc(CC(NC(=O)c2cccnc2-n2ccc(-c3cccc(C(F)(F)F)c3)n2)C(=O)C(N)=O)cc1 (centres unmarked) [Example 126, N-(3-Amino-1-{[4-(methyloxy)phenyl]methyl}-2,3-dioxopropyl)-2-{3-[3-(trifluoromethyl)phenyl]-1H-pyrazol-1-yl}pyridine-3-carboxamide] | ≥ 7.40 | –
O=C[C@H](Cc1ccccc1)NC(=O)c1cccnc1-n1ccc(-c2ccccc2)n1 [Example 105, N-[(1S)-1-Formyl-2-phenylethyl]-2-(3-phenyl-1H-pyrazol-1-yl)pyridine-3-carboxamide] | ≥ 7.40 | –
CN(C)Cc1cn(-c2ncccc2C(=O)NC(Cc2ccccc2)C(=O)C(N)=O)nc1-c1cccc(C(F)(F)F)c1 (centres unmarked) [Example 176, N-[3-Amino-2,3-dioxo-1-(phenylmethyl)propyl]-2-{4-[(dimethylamino)methyl]-3-[3-(trifluoromethyl)phenyl]-1H-pyrazol-1-yl}pyridine-3-carboxamide] | – | ++ (Ki(cathepsin S)/Ki(calpain) ratio of ≧100)

Second part, led by results:

pKi [1] | Structure (SMILES) | Sel cat. S (Ki(cathepsin S)/Ki(calpain) ratio) [2]
≥ 7.40 | NC(=O)C(=O)C(Cc1ccccc1)NC(=O)c1cccnc1-n1cnc(-c2cccc(Cl)c2)c1 (centres unmarked) [Example 22, N-(3-Amino-1-benzyl-2,3-dioxopropyl)-2-[4-(3-chlorophenyl)-1H-imidazol-1-yl]nicotinamide] | –
7.00 to 7.40 | CCN(CC)c1ccc(-c2cn(-c3ncccc3C(=O)NC(Cc3ccccc3)C(=O)C(N)=O)cn2)cc1 (centres unmarked) [Example 16, N-(3-Amino-1-benzyl-2,3-dioxopropyl)-2-{4-[4-(diethylamino)phenyl]-1H-imidazol-1-yl}nicotinamide hydrochloride] | –
≥ 7.40 | NC(=O)C(=O)C(Cc1ccccc1)NC(=O)c1cccnc1-n1cc(-c2ccccc2)cn1 (centres unmarked) [Example 4, N-(3-Amino-1-benzyl-2,3-dioxopropyl)-2-(4-phenyl-1H-pyrazol-1-yl)nicotinamide] | –
7.00 to 7.40 | NC(=O)C(=O)C(Cc1ccccc1)NC(=O)c1cccnc1-n1ccc(-c2ccc3ocnc3c2)n1 (centres unmarked) [Example 129, N-[3-Amino-2,3-dioxo-1-(phenylmethyl)propyl]-2-[3-(1,3-benzoxazol-5-yl)-1H-pyrazol-1-yl]pyridine-3-carboxamide] | –
≥ 7.40 | NC(=O)C(=O)C(Cc1ccccc1)NC(=O)c1cccnc1-n1ncc2ccccc21 (centres unmarked) [Example 77, N-(3-Amino-1-benzyl-2,3-dioxopropyl)-2-(1H-indazol-1-yl)nicotinamide] | –
≥ 7.40 | NC(=O)C(=O)C(Cc1ccccc1)NC(=O)c1cccnc1-n1cnc(-c2ccccc2Cl)c1 (centres unmarked) [Example 19, N-(3-Amino-1-benzyl-2,3-dioxopropyl)-2-[4-(2-chlorophenyl)-1H-imidazol-1-yl]nicotinamide hydrochloride] | –
≥ 7.40 | NC(=O)C(=O)C(Cc1ccccc1)NC(=O)c1cc(Cl)cnc1-n1cnc(-c2ccccc2)c1 (centres unmarked) [Example 23, N-(3-Amino-1-benzyl-2,3-dioxopropyl)-5-chloro-2-(4-phenyl-1H-imidazol-1-yl)nicotinamide hydrochloride] | –
≥ 7.40 | CC(C)CC(NC(=O)c1cc(Cl)cnc1-n1cnc(-c2ccccc2)c1)C(=O)C(N)=O (centres unmarked) [Example 25, N-{1-[Amino(oxo)acetyl]-3-methylbutyl}-5-chloro-2-(4-phenyl-1H-imidazol-1-yl)nicotinamide] | –
